Activity calls are given as the source filed them.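 How the source made its calls: active means wild-type drop in polymyxin IC50 at top compound dose over twice that in the PhoP-lacking mutant; inactive means the rest.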
Legend:
[1] = compound effect on Typhimurium polymyxin resistance – wild type vs phoP- strains, OD600 (AID 2640); details: S. Typhimurium polymyxin resistance, OD600 growth, 24 h; for IC50 shift difference / IC50 shift: measured here: polymyxin IC50 shift, at 150 µM; for IC50 shift difference: WT minus phoP-
[2] = test system: S. Typhimurium polymyxin resistance, OD600 growth, 24 h; experiment: as above
[3] = WT strain, stronger effect = higher value
[4] = phoP- strain, stronger effect = lower value
[5] = WT polymyxin IC50 at 150 uM, stronger effect = lower value
[6] = phoP- polymyxin IC50 at 150 uM, stronger effect = lower value

SMILES	IC50 shift difference ([1]; stronger effect = higher value)	IC50 shift [1, 3]	IC50 shift [1, 4]	IC50 [2] [µM]	IC50 [2, 5] [µM]	outcome [1]	IC50 [2, 6] [µM]
O=C1C2=C(Nc3ccccc3SC2c2ccco2)c2ccccc21 (centres undefined)	14.6	18.2	3.6	30	0.04	–	–
Cc1ccc(Nc2cc(C)c3c(O)cccc3n2)cc1C	2.63	2.54	-0.09	–	2.25	inactive	0.088
S=C(NCc1ccc(Cl)cc1)Nc1ccncc1	20.4	3.93	-16.4	30	3.59	–	24
COc1c(N2CCN(C(=S)NCc3ccccc3)C(C)C2)c(F)cc2c(=O)c(C(=O)O)cn(C3CC3)c12 (centres undefined)	6.39	9.16	2.76	10	–	–	0.677
CCn1cc(C(=O)O)c(=O)c2cc(F)c(N3CCN(C(=S)NC(=O)c4ccccc4Cl)CC3)cc21	10.3	9.6	-0.66	20	0.138	–	0.706
O=C(Nc1ccc(Cl)cc1)N1CCCN(Cc2ccccc2F)C1	27.6	5.14	-22.4	30	0.62	–	26.9
